Assay results published in paper PMC5068747, “Using C. elegans Forward and Reverse Genetics to Identify New Compounds with Anthelmintic Activity” (PLoS Neglected Tropical Diseases, 2016).

Tests used:
[1] = tested on: C. elegans pink-1 mutant strains; assay: Resistance of pink-1 mutant strains (MMP / knockout) to CID 2747322; format: in vivo, Caenorhabditis elegans
C. elegans VC2010 = assay: Manual inspection of growth, brood size, developmental stage and recovery of C. elegans in drug; format: in vivo, Caenorhabditis elegans
Procedure: WormScan is a powerful tool to identify compounds with potential effects on the nematode, but it is still necessary to do manual inspection of wells with few animals to determine details of growth, behavior and fecundity. Wild-type worms grown in 90 μM CID 2747322 have brood sizes reduced by 97%. […] All current classes of anthelmintic have greater specificity towards certain life-stages. It is interesting that when removed from the drug L1s will recover and develop, and generally become fertile adults (See S3 Fig).
Supplementary file pntd.0005058.s002.tiff: S2 Fig Developmental stage of inhibition in C. elegans after CID 2747322 exposure. Ten VC2010 L1 stage C. elegans were sorted into a DMSO control well or 90 μM of CID 2747322. Nematodes were removed from the DMSO control or CID 2747322 after 24/48/72 hours and allowed to recover for 30 minutes on standard agar plates. (TIFF) Click here for additional data file.
Supplementary file pntd.0005058.s003.tiff: S3 Fig Development of C. elegans after removel from CID 2747322. Greater than 50 VC2010 L1 stage C. elegans were sorted into a DMSO control well or 90 μM of CID 2747322. Nematodes were removed from DMSO control or CID 2747322 after 2 days of exposure and left to recovery for 24/48/72 hours. (TIFF) Click here for additional data file.

[2] = tested on: C. elegans VC3635 (pink-1 gk3615, D19 resistant); assay: IC50 on CID 2747322 resistant C. elegans strain VC3635; format: in vivo, Caenorhabditis elegans; conditions: Caenorhabditis elegans, 120 h; 5 days exposure, 2 L4 per well, three biological replicates
Procedure: All compound libraries were stored in 96-well plates, with 80 drugs per plate (columns 1 and 12 left empty). A BioGrid BG600 pinning robot (Digilab / BioRobotics) was used for compound transfer. The robot uses a 96-pin tool (0.7 mm dia.) to transfer a nominal volume of 340 nL of compound. For retesting, compounds were hand pinned from the original library plates to assay plates using a single 0.7 mm dia. pin. The assay plates were 96-well clear flat-bottom microplates containing 2% χ1666 E.coli bacteria in 0.5X Liquid Nematode Growth Media (LNGM) plus cholesterol (Bacteria were mass-grown in rich media, and harvested by centrifugation to produce a thick paste of bacterial cells that was kept frozen at -20°C. Cells were resuspended at 2% W/V in 0.5X LNGM to produce liquid worm food). Using a COPAS Biosort (Union Biometrica), two L4 to young adult stage VC2010 worms were added to each well of the plate in a final volume of 45 μL. After five days of exposure to the compounds, the plates were scanned and the data analyzed. A five day time period was chosen to be able to observe effects over all stages of the life cycle and through at least one round of replication. The initial proof-of-principle primary screen was performed manually using a dissecting microscope. Phenotypes scored included decreased motility, reduced brood size, and/or death as described previously. For high throughput screening of the Chembridge and Maybridge compound libraries we used the program WormScan, which was adapted for screening 96-well flat-bottom LNGM plates. Using WormScan it was possible to screen four 96-well plates at a time. Plates were scanned twice, at a resolution of 1200 dots per inch, 16-bit grayscale, producing a jpeg image. The light intensity produced by the scanner was sufficient to cause negative phototaxis equivalent to a physical stimulus for mortality determination. The time required to scan four 96-well plates using an Epson Perfection V700 Photo Scanner was less than ten minutes. The time to screen a single plate was less than 1.2 minutes, with less than ten seconds between scans.
WormScan was used to screen for the same phenotypes as in the manual screen (reduced brood size, reduced behavior/motility response and increased mortality). Two sequential scans for each 96-well plate were aligned to a reference region of interest (ROI). Image analysis was based on a difference image score calculated for each ROI. The difference image score (WormScan score) was normalized using a “percent of control” method to derive a normalized WormScan score. […] Wild-type growth in 1% DMSO (Fig 1A) results in a normalized WormScan score of 100. Exposure to 50 nM ivermectin gives a score of 0 (Fig 1C), and complete absence of worms gives a score of 0 (Fig 1D). For the primary screen the WormScan score was calculated using custom macro scripts written for Fiji. For secondary screening and any subsequent studies the WormScan score was calculated using a standalone Java program (See supplemental). Probit regression of mortality was calculated using Mathematica 8.0.
A standard ethyl methanesulfonate (EMS) mutagenesis protocol was carried out using VC2010 in order to generate mutants resistant to CID 2747322 exposure. First larval stage (L1) F2 progeny of mutagenized P0s were exposed to CID 2747322 at 200 μM in liquid worm food in 24-well tissue culture plates for five days at room temperature, and two independently isolated resistant lines (VC3614 and VC3615) were identified. […]

[3] = tested on: C. elegans CB3474 (ben-1(e1880), benomyl resistant); assay: IC50 on benzimidazole resistant C. elegans strain; format: in vivo, Caenorhabditis elegans; conditions: Caenorhabditis elegans, 120 h; 5 days exposure, 2 L4 per well, three biological replicates
C. briggsae = assay: Dosage curve on C. briggsae; format: in vivo; conditions: Caenorhabditis briggsae, 120 h; two L4 per well, five days of exposure
Description: Supplementary file pntd.0005058.s004.pdf: S4 Fig Dosage curve for effects on C. briggsae of CID 2747322. Two L4 C. briggsae animals were placed into each well of a 96-well pate for five days of exposure to CID 2747322. […] (PDF) Click here for additional data file.

[4] = tested on: C. elegans DA1316 (avr-14(ad1302); avr-15(vu227); glc-1(pk54), ivermectin resistant); assay: IC50 on ivermectin resistant C. elegans strain; format: in vivo, Caenorhabditis elegans; conditions: Caenorhabditis elegans, 120 h; 5 days exposure, 2 L4 per well, three biological replicates
[5] = tested on: C. elegans CB193 (unc-29(e193), levamisole resistant); assay: IC50 on levamisole resistant C. elegans strain; format: in vivo, Caenorhabditis elegans; conditions: Caenorhabditis elegans, 120 h; 5 days exposure, 2 L4 per well, three biological replicates

COc1ccc(OCCNC(=O)c2ccccc2C(F)(F)F)cc1 [CID 2747322, N-[2-(4-methoxyphenoxy)ethyl]-2-(trifluoromethyl)benzamide]
Resistance ([1]; strain RB2547, pink-1 Knockout): none
Resistance ([1]; strain VC20205, pink-1 W562stop): none
Resistance ([1]; strain VC20423, pink-1 V373I): none
Resistance ([1]; strain VC20470, pink-1 E162K): none
Resistance ([1]; strain VC20521, pink-1 P226S): sensitive
Resistance ([1]; strain VC20546, pink-1 P32L): sensitive
Resistance ([1]; strain VC20588, pink-1 A628T): none
Resistance ([1]; strain VC30104, pink-1 Knockout): none
Resistance ([1]; strain VC30182, pink-1 G415E): none
Resistance ([1]; strain VC40096, pink-1 M1I): none
Resistance ([1]; strain VC40194, pink-1 D378N): resistant
Resistance ([1]; strain VC40287, pink-1 S341N): resistant
Resistance ([1]; strain VC40373, pink-1 A365T): none
Resistance ([1]; strain VC40385, pink-1 L232F): resistant
Resistance ([1]; strain VC40392, pink-1 T65I): none
Resistance ([1]; strain VC40527, pink-1 V334I): none
Resistance ([1]; strain VC40694, pink-1 M556L): resistant
Resistance ([1]; strain VC40738, pink-1 E353K): none
Resistance ([1]; strain VC41008, pink-1 L180F): resistant
developmental stage of inhibition (C. elegans VC2010; 90 μM, while maintained in drug): arrest at the first larval stage (L1)
outcome after exposure / removal from drug (C. elegans VC2010; L1s removed from the drug): reversible inhibition
brood sizes reduced (C. elegans VC2010; wild-type worms grown in 90 μM): 97%
IC50 [2]: > 500 µM
IC50 [3]: 4 µM
IC50 (C. briggsae): 16 µM
IC50 [4]: 16 µM
IC50 [5]: 14 µM
